Experiments:
[1] = target: CLK2 kinase (Homo sapiens, UniProt P49760); assay: CLK2 kinase activity assay (Z-lyte FRET); assay type: biochemical; conditions: Z-lyte Ser/Thr 6 peptide, 60 μM ATP, 1 h at room temperature;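 also: FRET read-out as coumarin to fluorescein emission ratio, unphosphorylated peptide as 0% and phosphorylated peptide as 100% controls, duplicate reactions, non-linear regression fit of dose-response curves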
Procedure: This is a non-radioactive assay using fluorescence resonance energy transfer (FRET) between coumarin and fluorescein to detect kinase activity which is represented as a ratio of coumarin emission/fluorescein emission.
The mixture was allowed to incubate with the representative compounds for one hour at room temperature. All reactions were performed in duplicate. Unphosphorylated (“0% Control”) and phosphorylated (“100% control”) forms of Ser/Thr 6 served as control reactions. Additionally, an 11-point dose-response curve of Staurosporine (1 μM top) was run to serve as a positive compound control.
After incubation, Development Reagent A was diluted in Development Buffer then added to the reaction and allowed to further incubate for one hour at room temperature.
Dose-response curves were generated and inhibitory concentration (IC50) values were calculated using non-linear regression curve fit in the Dotmatics' Studies Software (Bishops Stortford, UK).

[2] = target: CLK3 kinase (Homo sapiens, UniProt P49761); assay: CLK3 kinase activity assay (Z-lyte FRET); assay type: biochemical; conditions: Z-lyte Ser/Thr 18 peptide, 156 μM ATP, 1 h at room temperature;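 also: kinase activity read as coumarin/fluorescein emission ratio by FRET, unphosphorylated peptide as 0% and phosphorylated peptide as 100% control, values from non-linear regression of dose-response curves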
Sequence of CLK3 kinase (P49761 whole entry): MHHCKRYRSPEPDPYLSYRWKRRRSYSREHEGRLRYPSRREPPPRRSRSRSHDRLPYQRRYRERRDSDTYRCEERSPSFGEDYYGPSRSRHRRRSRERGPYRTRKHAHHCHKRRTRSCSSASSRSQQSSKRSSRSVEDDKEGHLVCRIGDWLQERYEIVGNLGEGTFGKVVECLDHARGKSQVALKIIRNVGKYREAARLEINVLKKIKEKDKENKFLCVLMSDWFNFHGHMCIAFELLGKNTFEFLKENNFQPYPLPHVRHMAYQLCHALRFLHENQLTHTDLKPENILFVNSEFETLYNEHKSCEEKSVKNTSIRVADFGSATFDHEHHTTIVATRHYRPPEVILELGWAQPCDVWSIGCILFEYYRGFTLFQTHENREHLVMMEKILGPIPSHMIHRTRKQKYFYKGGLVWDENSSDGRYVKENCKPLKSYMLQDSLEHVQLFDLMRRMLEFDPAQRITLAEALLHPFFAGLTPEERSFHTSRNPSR

[3] = tested on: primary human mesenchymal stem cells (hMSCs); assay: Chondrogenesis screening using primary human mesenchymal stem cells; assay type: cell-based; conditions: Homo sapiens, Mesenchymal stem cells, hMSC chondrogenesis; for EC50: concentration required to induce 50% levels of chondrogenesis with TGF-β3 as positive control, read-out: Conc (nM) of 50% TGF-β3 activity; for Emax: maximum activity relative to TGF-β3 (10 ng/mL) positive control, read-out: Max. Activity as % TGF-β3 activity
Summary of the method: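 Derived values are EC50 for 50% chondrogenesis, maximal activity and the dose giving it. These come from nodule area in passage 3–6 primary hMSCs, expressed as fold change over the mean of 3 same-plate DMSO wells, 2–3 replicates per concentration. TGF-β3 served as positive control.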

[4] = tested on: MMP-3 levels in supernatant of chondrocytes stimulated with IL1-β; assay: Chondrocyte protection assay compound screening (MMP-3 LANCE Ultra); assay type: cell-based, human; conditions: Homo sapiens, Chondrocyte, IL1-β 10 ng/mL overnight, 11-point curves from 3 μM to 0.05 nM; for Emax: read-out: Maximum % Inhibition
Summary of the method: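 Primary human chondrocytes (passage 2–5) in differentiation medium were stimulated with 10 ng/mL IL1-β for an overnight incubation at 37 °C. MMP-3 in 1:7-diluted supernatant was read by TR-FRET immunoassay against a standard curve, normalised to IL1-β-stimulated wells; EC50 and maximum % inhibition came from nonlinear regression.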

[5] = tested on: Wnt pathway activity (SW480 colon carcinoma cells stably expressing the Sp5-Luc reporter); assay: Wnt pathway activity screening assay (Sp5-Luc reporter gene assay); conditions: Homo sapiens
[6] = SW480, Table 4, SW480 cells stably expressing Sp5-Luc reporter, 10-point dose-response from 10 μM, 36 to 48 hours

Sequence of CLK2 kinase (P49760 whole entry): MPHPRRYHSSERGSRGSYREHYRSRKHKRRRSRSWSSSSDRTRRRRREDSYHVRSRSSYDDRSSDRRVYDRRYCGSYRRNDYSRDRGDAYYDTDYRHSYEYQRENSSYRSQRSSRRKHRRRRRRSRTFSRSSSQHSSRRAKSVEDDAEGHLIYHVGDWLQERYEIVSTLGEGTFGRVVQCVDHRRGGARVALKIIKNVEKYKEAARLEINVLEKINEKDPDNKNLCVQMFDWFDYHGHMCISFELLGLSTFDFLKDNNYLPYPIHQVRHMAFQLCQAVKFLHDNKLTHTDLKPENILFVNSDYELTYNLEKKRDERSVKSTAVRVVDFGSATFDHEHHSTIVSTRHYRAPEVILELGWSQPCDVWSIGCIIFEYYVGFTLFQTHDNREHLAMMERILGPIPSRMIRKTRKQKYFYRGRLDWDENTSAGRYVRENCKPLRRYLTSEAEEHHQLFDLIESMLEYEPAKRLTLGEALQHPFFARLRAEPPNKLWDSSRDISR

Row | EC50 [1] | EC50 [2] | EC50 [3] | EC50 [5, 6] | SMILES | Emax [3] | EC50 [4] | Emax [4] | EC50 ([5]; SW480)
1 | 6 nM | 1780 nM | 2700 nM | 90.3 nM | CC(C)Oc1cncc(C(=O)Nc2c[nH]nc2C(=O)Nc2ccc(OC3CCN(C)CC3)nc2)c1 [compound 10] | 140% | 1.5 nM | 46.9% | –
2 | 6 nM | 6020 nM | – | 2220 nM | O=C(Nc1c[nH]nc1C(=O)Nc1ccc(N2CCC(F)(F)C2)nc1)c1cncc(OC2CCNCC2)c1 [compound 12] | 75.2% | 280 nM | 88.7% | –
3 | 10 nM | 4300 nM | – | 1600 nM | O=C(Nc1c[nH]nc1C(=O)Nc1cncc(-c2cccc(F)c2)c1)c1cncc(OC2CCNCC2)c1 [compound 14] | 89.5% | 339 nM | 71.9% | –
4 | 17 nM | 2670 nM | 900 nM | 988 nM | O=C(Nc1ccc(CN2CCCC2)cc1)c1n[nH]cc1/C=C/c1cccnc1 [compound 17] | 194% | 3.7 nM | 64.7% | –
5 | 27 nM | 627 nM | – | 1510 nM | Fc1ccc(-c2nnc(-c3n[nH]cc3/C=C/c3cccnc3)o2)cc1 [compound 23] | 23.4% | ≥ 3000 nM | 51.7% | –
6 | 1 nM | 326 nM | – | 325 nM | CN1CCN(c2nccc3[nH]c(-c4n[nH]cc4/C=C/c4cncc(F)c4)nc23)CC1 [compound 25] | 39% | ≥ 3000 nM | 91.9% | –
7 | 1 nM | 492 nM | 2700 nM | 82.1 nM | Fc1cccc(-c2cccc3[nH]c(-c4n[nH]cc4/C=C/c4cncc(CN5CCCC5)c4)nc23)c1 [compound 26] | 81.7% | 1.4 nM | 64.6% | –
8 | 10 nM | 9840 nM | – | 464 nM | CC(C)OCCCNC(=O)c1n[nH]c2ccc(-c3cccnc3)cc12 [compound 58] | 92.5% | 10.8 nM | 61.1% | –
9 | 13 nM | 4020 nM | 2700 nM | 47.1 nM | CC(C)NC(=O)c1n[nH]c2ccc(-c3cncc(CN4CCC(F)(F)CC4)c3)cc12 [compound 75] | 104% | 8 nM | 95.1% | –
10 | 1 nM | 55 nM | – | 79 nM | CN1CCC(n2cc(NC(=O)c3n[nH]c4ccc(-c5cnn(C)c5)cc34)cn2)CC1 [compound 106] | 23.6% | 818 nM | 100% | –
11 | 1 nM | 90 nM | – | 242 nM | Cn1cc(-c2cc3c(C(=O)Nc4ccc(CN5CCCC5)cc4)n[nH]c3cc2F)cn1 [compound 107] | 27.4% | ≥ 3000 nM | 22.9% | –
12 | 3 nM | 18 nM | – | 10 nM | CN(C)C(=O)Nc1cncc(-c2cnc3[nH]nc(-c4nc5c(-c6cccc(F)c6)cncc5[nH]4)c3c2)c1 [compound 130] | 68.1% | 40.6 nM | 60.5% | –
13 | 4 nM | 24 nM | 30 nM | 4 nM | CC(C)C(=O)Nc1cncc(-c2ccc3[nH]nc(-c4nc5c(-c6ccccc6F)cncc5[nH]4)c3c2)c1 [compound 173] | 102% | ≥ 3000 nM | 90.2% | –
14 | 8 nM | 26 nM | 100 nM | 12 nM | CC(C)CC(=O)Nc1cncc(-c2ccc3[nH]nc(-c4nc5c(-c6cccnc6)cncc5[nH]4)c3c2)c1 [compound 189] | 198% | 111 nM | 100% | –
15 | 4 nM | 58 nM | – | 42 nM | CCCC(=O)Nc1cncc(-c2ccc3[nH]nc(-c4nc5c(N6CCCCC6)cncc5[nH]4)c3c2)c1 [compound 208] | 77.3% | 20.5 nM | 39% | –
16 | 1 nM | 26 nM | 30 nM | 85.7 nM | CN1CCN(c2nccc3[nH]c(-c4n[nH]c5cc(F)c(-c6cnn(C)c6)cc45)nc23)CC1 [compound 219] | 113% | 35.5 nM | 87.3% | –

Row | EC50 [1] | EC50 [2] | EC50 [3] | EC50 [5, 6] | SMILES | Emax [3] | EC50 [4] | Emax [4] | EC50 ([5]; SW480)
17 | 1 nM | 61 nM | – | 23 nM | c1cncc(-c2ccc3[nH]nc(-c4nc5c(N6CCOCC6)cncc5[nH]4)c3c2)c1 [compound 220] | 90.4% | 13.6 nM | 100% | –
18 | 3 nM | 263 nM | 100 nM | > 10000 nM | Cc1cn(-c2cncc3[nH]c(-c4n[nH]c5ccc(-c6cncc(NC(=O)C(C)(C)C)c6)nc45)nc23)cn1 [compound 222] | 150% | 1150 nM | 64.9% | –
19 | 1 nM | 128 nM | 30 nM | 48 nM | CN(C)Cc1cncc(-c2cnc3[nH]nc(-c4nc5c(-c6cccs6)cncc5[nH]4)c3c2)c1 [compound 260] | 146% | ≥ 3000 nM | – | –
20 | 1 nM | 20 nM | 10 nM | 45.5 nM | Cc1ccc(-c2nccc3[nH]c(-c4n[nH]c5ccc(-c6cncc(N)c6)nc45)nc23)s1 [compound 275] | 72.6% | ≥ 3000 nM | 58.4% | –
21 | 1 nM | 25 nM | 300 nM | 1660 nM | CC(C)Nc1cncc(-c2ccc3[nH]nc(-c4nc5c(-c6cc(F)cc(NCCN(C)C)c6)cncc5[nH]4)c3n2)c1 [compound 284] | 96.8% | ≥ 3000 nM | 32.9% | –
22 | 1 nM | 13 nM | – | > 10000 nM | CC(C)CC(=O)Nc1cncc(-c2cc3c(-c4nc5c(-c6cc(F)cc(OCCN7CCCC7)c6)cncc5[nH]4)n[nH]c3cn2)c1 [compound 298] | 20.3% | ≥ 3000 nM | 23.2% | –
23 | 2 nM | 214 nM | 10 nM | 3730 nM | CCNCc1cncc(-c2cc3c(-c4cc5c(-c6cccnc6)cncc5[nH]4)n[nH]c3cn2)c1 [compound 367] | 67.6% | ≥ 3000 nM | 75.7% | –
24 | 3 nM | 69 nM | – | > 10000 nM | O=C(Nc1cncc(-c2cnc3[nH]nc(-c4cc5c(-c6ccncc6)cncc5[nH]4)c3c2)c1)C1CCC1 [compound 394] | 43.5% | 17.9 nM | 90.4% | –
25 | 6 nM | 61 nM | – | 824 nM | CC(C)OC(=O)N1CCC(n2cc(C(=O)Nc3cc4cc(-c5cnn(C)c5)ncc4cn3)cn2)CC1 [compound 609] | – | 154 nM | 50.2% | –
26 | 9 nM | 31 nM | – | 607 nM | CN1CCC2(CC1)CN(c1cc(C(=O)Nc3cc4cc(-c5cnn(C)c5CN5CCCCC5)cnc4cn3)ccn1)C2 [compound 610] | – | ≥ 3000 nM | 30.4% | –
27 | 3 nM | 31 nM | – | 107 nM | Cc1ncc(C(=O)Nc2cc3nc(-c4cnc(C)n4C)ccc3cn2)s1 [compound 611] | – | 8.7 nM | 68.3% | –
28 | 5 nM | 12 nM | – | 357 nM | CN1CC=C(c2cc(C(=O)Nc3cc4cc(-c5cncc(NC(C)(C)C)n5)cnc4cn3)ccn2)CC1 [compound 612] | – | ≥ 3000 nM | 38.6% | –
29 | 7 nM | 133 nM | – | 3640 nM | O=C(Nc1cc2cc(-c3cncc(NC4CCNCC4)n3)ncc2cn1)C1CCOCC1 [compound 613] | – | 46.6 nM | 51.4% | –
30 | 7 nM | 97 nM | – | 164 nM | CC(C)n1cc(C(=O)Nc2cc3cc(-c4cncc(NC5CCN(C)CC5)n4)ncc3cn2)cn1 [compound 614] | – | ≥ 3000 nM | 41.1% | –
31 | 6 nM | 19 nM | – | 1400 nM | CN1CCC(n2cc(C(=O)Nc3ncc4ccc(-c5cncc6[nH]ccc56)cc4n3)cn2)CC1 [compound 616] | – | ≥ 3000 nM | 48.3% | –

Row | SMILES | EC50 [1] | EC50 [2] | EC50 [3] | EC50 [5, 6] | Emax [3] | EC50 [4] | Emax [4] | EC50 ([5]; SW480)
32 | O=C(Nc1cccnc1)c1n[nH]c2ccc(-c3cncc(CN4CC5CC(C4)O5)c3)cc12 [compound 101] | 1 nM | 44 nM | 900 nM | – | 121% | ≥ 3000 nM | 45.7% | 67 nM
33 | CC(C)Oc1ccc(NC(=O)c2n[nH]c3ccc(-c4cncc(CN5CC6CC(C5)O6)c4)cc23)cn1 [compound 102] | 2 nM | 88 nM | 30 nM | – | 75.7% | 0.2 nM | 26.3% | 61 nM
